These results are taken from patent US20240158393A1, “PYRIDONE COMPOUNDS AND METHODS OF USE” (Exelixis, Inc., priority 2021, published 2024).

Common to all, as to type: biochemical
The target in one assay is T1, Human Met (Homo sapiens, UniProt P08581).
T1 construct: Human MET (residues 956-1390)
The assay can be described thus: Human Met kinase assay (33P radiometric / HTRF KinEase). As to conditions: protocols of Examples D-1 and/or D-2; read-out: c-Met IC50. The protocol:
(§1) Kinase activity and compound inhibition were investigated using the ^33P-Phosphoryl transfer radiometric kinase assay, performed using the KinaseProfiler™ service of Eurofins Pharma Discovery Services UK Limited. Dose-response experiments were performed using nine compound concentrations in a 96-well microtiter plate. For each assay, all compounds were prepared to a 50× final assay concentration (50 μM) in 100% DMSO, then diluted in a half-log series, with the final top concentration at 1 μM. This working stock of the compound was added to the assay well as the first component in the reaction, followed by the remaining components as detailed in the following assay protocols below. The positive control wells (100% kinase activity) contain all components of the reaction including 2% DMSO (control for solvent effects), except the compound of interest. Blank wells contain all components of the reaction, with the reference inhibitor, staurosporine. This reference compound was used to abolish kinase activity and generated the 0% kinase activity base-line. IC50 values were calculated by nonlinear regression analysis using the sigmoidal dose-response (variable slope) curve fit on XLFit version 5.3 (ID Business Solutions).
(§2) Kinase activity and compound inhibition were also investigated using the HTRF® KinEase assay (Cisbio Cat #62TKOPEB) per manufacturer's instructions. In short, compounds were delivered in 300 nL volumes at 10 different concentrations in DMSO (3% final) to empty 384-well assay plates (Corning cat #3824). A mixture of enzyme, 1 μM biotinylated peptide substrate, and buffer in 10 μL volume was added. The assay was started upon the addition of ATP (at Km). The 10 μL reaction was incubated at room temperature. The reaction was stopped upon the addition of detection buffer containing streptavidin-XL665 (5 μL) and TK antibody-Eu3+(5 μL). After a 60 min incubation at room temperature, the fluorescence at 665 nm and 620 nm was read on an Envision microplate reader (Perkin Elmer).
(§3) Kinase activity normalized to DMSO (100% activity) and reference compound at 1 μM and (0% activity) was calculated using the fluorescence ratio […]. IC50 values were calculated by nonlinear regression analysis using a 4-parameter logistic curve fit in ActivityBase XE (IDBS).
(§4) Example D-1: Human Met (residues R974-S1390 with A1209G and V1290L, 3.4 nM) was incubated with 8 mM MOPS pH 7.0, 0.2 mM EDTA, 250 μM KKKGQEEEYVFIE (SEQ ID NO:3), 1 mM sodium orthovanadate, 5 mM sodium-6-glycerophosphate, 10 mM magnesium acetate, and 10 μM [γ-^33P-ATP]. The reaction was initiated by the addition of the Mg/ATP mix. After incubation for 40 minutes at room temperature, the reaction was stopped by the addition of phosphoric acid to a concentration of 0.5%. A reaction aliquot of 10 μL was then spotted onto a P30 filtermat and washed four times for 4 minutes in 0.425% phosphoric acid and once in methanol prior to drying and scintillation counting. Incorporated ^33P was measured using the Wallac Microbeta scintillation counter (Perkin Elmer).
Example D-2: Human MET (residues 956-1390; CarnaBio, 0.1 ng/well) was also incubated with enzymatic buffer (Cisbio) supplemented with 5 mM MgCl2, 1 mM DTT and 1 mM MnCl2. The mixture was added to the pre-plated compounds. The reaction was initiated upon addition of ATP at Km (3.0 μM). The reaction was incubated at room temperature for 40 min and stopped upon the addition of SA-XL665 and TK-antibody both diluted in EDTA-containing kinase detection buffer (Cisbio). The kinase activity was calculated as stated above and the IC50 values were reported.

In another assay the target is T2, Human KDR (Homo sapiens, UniProt P35968).
T2 construct: Human KDR (residues K790-V1356, 55 nM); purchased Eurofins Pharma Discovery Services UK Limited (KinaseProfiler, B-1) and/or CarnaBio (B-2)
T2 sequence (P35968 790-1356): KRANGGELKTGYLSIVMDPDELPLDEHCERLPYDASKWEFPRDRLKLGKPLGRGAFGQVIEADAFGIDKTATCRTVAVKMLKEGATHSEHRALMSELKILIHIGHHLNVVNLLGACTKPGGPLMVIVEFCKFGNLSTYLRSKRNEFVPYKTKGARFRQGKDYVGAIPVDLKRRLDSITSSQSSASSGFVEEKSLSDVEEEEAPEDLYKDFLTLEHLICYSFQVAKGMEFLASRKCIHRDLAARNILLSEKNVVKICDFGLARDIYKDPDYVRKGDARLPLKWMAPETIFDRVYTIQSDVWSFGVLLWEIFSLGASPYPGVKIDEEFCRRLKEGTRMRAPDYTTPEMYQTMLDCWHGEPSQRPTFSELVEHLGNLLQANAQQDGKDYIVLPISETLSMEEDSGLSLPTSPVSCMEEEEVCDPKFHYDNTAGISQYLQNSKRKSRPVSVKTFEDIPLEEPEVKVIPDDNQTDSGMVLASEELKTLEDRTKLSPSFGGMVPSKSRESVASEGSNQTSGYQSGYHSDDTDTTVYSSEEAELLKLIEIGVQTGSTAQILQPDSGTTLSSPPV
Briefly: Human KDR kinase assay (33P radiometric / HTRF KinEase). As to conditions: protocols of Examples B-1 and/or B-2. As to the method:
as §1, §2, §3
as §4, with “B-1:” for “D-1:”, “KDR” for “Met”, “K790-V1356, 55” for “R974-S1390 with A1209G and V1290L, 3.4”, “0.33 mg/mL myelin basic protein,” for “250 μM KKKGQEEEYVFIE (SEQ ID NO:3), 1 mM sodium orthovanadate, 5 mM sodium-6-glycerophosphate,”
Example B-2: Human KDR (residues 790-1356; CarnaBio, 0.1 ng/well) was also incubated with enzymatic buffer (Cisbio) supplemented with 5 mM MgCl2, 1 mM MnCl2, and 1 mM DTT. The mixture was added to the pre-plated compounds. The reaction was initiated upon addition of ATP at Km (4.0 μM). The reaction was incubated at room temperature for 40 min and stopped upon the addition of SA-XL665 and TK-antibody both diluted in EDTA-containing kinase detection buffer (Cisbio). The kinase activity was calculated as stated above and the IC50 values were reported.

The target of the next assay is T3, Human Mer (Homo sapiens, UniProt Q12866).
T3 construct: Human Mer (residues R557-E882 with H628Q and R794A, 0.7 nM); purchased Eurofins Pharma Discovery Services UK Limited (KinaseProfiler service)
T3 sequence (Q12866 557-882 limits assumed): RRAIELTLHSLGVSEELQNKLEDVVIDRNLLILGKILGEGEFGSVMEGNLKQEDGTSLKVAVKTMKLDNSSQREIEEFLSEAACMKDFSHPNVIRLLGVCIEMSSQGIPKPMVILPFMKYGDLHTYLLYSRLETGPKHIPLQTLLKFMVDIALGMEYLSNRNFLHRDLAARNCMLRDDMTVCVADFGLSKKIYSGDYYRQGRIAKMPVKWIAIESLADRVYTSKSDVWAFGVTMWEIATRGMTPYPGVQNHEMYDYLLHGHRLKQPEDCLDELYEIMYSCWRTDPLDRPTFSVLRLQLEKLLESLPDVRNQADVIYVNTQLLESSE
Briefly: Human Mer kinase assay (33P radiometric / HTRF KinEase). As to conditions: protocols of Examples C-1 and/or C-2. The protocol: as §1, §2, §3
Example C-1: Human Mer (residues R557-E882 with H628Q and R794A, 0.7 nM) was incubated with 8 mM MOPS pH 7.0, 0.2 mM EDTA, 30 mM NaCl, 250 μM GGMEDIYFEFMGGKKK (SEQ ID NO: 2), 10 mM magnesium acetate, and 10 μM [γ-^33P-ATP]. The reaction was initiated by the addition of the Mg/ATP mix. After incubation for 40 minutes at room temperature, the reaction was stopped by the addition of phosphoric acid to a concentration of 0.5%. A reaction aliquot of 10 μL was then spotted onto a P30 filtermat and washed four times for 4 minutes in 0.425% phosphoric acid and once in methanol prior to drying and scintillation counting. Incorporated ^33P was measured using the Wallac Microbeta scintillation counter (Perkin Elmer).
Example C-2: Human MER (residues 528-999; CarnaBio, 1 ng/well) was also incubated with enzymatic buffer (Cisbio) supplemented with 5 mM MgCl2 and 1 mM DTT. The mixture was added to the pre-plated compounds. The reaction was initiated upon addition of ATP at Km (40 μM). The reaction was incubated at room temperature for 60 min and stopped upon the addition of SA-XL665 and TK-antibody both diluted in EDTA-containing kinase detection buffer (Cisbio). The kinase activity was calculated as stated above and the IC50 values were reported.

T1 sequence (P08581 974-1390 limits assumed): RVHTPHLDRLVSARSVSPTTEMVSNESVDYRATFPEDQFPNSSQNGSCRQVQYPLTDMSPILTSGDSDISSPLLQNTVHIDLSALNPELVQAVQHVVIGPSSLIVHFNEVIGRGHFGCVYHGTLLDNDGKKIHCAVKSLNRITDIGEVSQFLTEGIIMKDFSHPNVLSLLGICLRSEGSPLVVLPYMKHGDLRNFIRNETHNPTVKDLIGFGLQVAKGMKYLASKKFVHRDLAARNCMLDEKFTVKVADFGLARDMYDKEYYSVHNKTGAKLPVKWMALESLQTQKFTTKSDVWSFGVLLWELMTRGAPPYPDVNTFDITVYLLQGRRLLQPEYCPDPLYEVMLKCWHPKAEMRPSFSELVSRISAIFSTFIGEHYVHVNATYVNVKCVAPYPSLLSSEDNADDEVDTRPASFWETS

Regarding `COc1cnc2c(Oc3ccc(NC(=O)c4cnc(C)c(C5=CCCCC5)c4O)cc3F)ccnc2c1` [Compound 1-8, 5-(Cyclohexen-1-yl)-N-[3-fluoro-4-[(7-methoxy-1,5-naphthyridin-4-yl)oxy]phenyl]-4-hydroxy-6-methylpyridine-3-carboxamide], the IC50 at Human Met, against Human KDR and on Human Mer was ≤ 100 nM each time.
`C=C(C)c1c(C)nc(C)c(C(=O)Nc2ccc(Oc3ccnc4cc(OC)cnc34)c(F)c2)c1O` [Compound 3, N-[3-Fluoro-4-[(7-methoxy-1,5-naphthyridin-4-yl)oxy]phenyl]-4-hydroxy-2,6-dimethyl-5-prop-1-en-2-ylpyridine-3-carboxamide]: the IC50 on Human Met, against Human KDR and against Human Mer was ≤ 100 nM in each case.
Turning to `C=C(C)c1c(C)nc(C)c(C(=O)Nc2ccc(Oc3ccnc4cc(OC)c(OC)nc34)cc2)c1O` [Compound 4, N-[4-[(6,7-Dimethoxy-1,5-naphthyridin-4-yl)oxy]phenyl]-4-hydroxy-2,6-dimethyl-5-prop-1-en-2-ylpyridine-3-carboxamide], the IC50 on Human Met, on Human KDR and against Human Mer was ≤ 100 nM throughout.
With `C=C(C)c1c(C)nc(C)c(C(=O)Nc2ccc(Oc3ccnc4cc(OC)c(OC)nc34)c(F)c2)c1O` [Compound 5, N-[4-[(6,7-Dimethoxy-1,5-naphthyridin-4-yl)oxy]-3-fluorophenyl]-4-hydroxy-2,6-dimethyl-5-prop-1-en-2-ylpyridine-3-carboxamide], the IC50 at Human Met, against Human KDR and against Human Mer was ≤ 100 nM throughout.
For `COc1cc2nccc(Oc3ccc(NC(=O)c4c(C)n(C)c(C)c(C(C)C)c4=O)cc3F)c2nc1OC` [Compound 56, N-[4-[(6,7-Dimethoxy-1,5-naphthyridin-4-yl)oxy]-3-fluorophenyl]-1,2,6-trimethyl-4-oxo-5-propan-2-ylpyridine-3-carboxamide], the IC50 at Human Met is > 300 nM; against Human KDR, > 300 nM; against Human Mer, ≤ 100 nM.
For `COc1cc2nccc(Oc3ccc(NC(=O)c4c(C)n(C)c(C)c(C(C)C)c4=O)cc3)c2nc1OC` [Compound 57, N-[4-[(6,7-Dimethoxy-1,5-naphthyridin-4-yl)oxy]phenyl]-1,2,6-trimethyl-4-oxo-5-propan-2-ylpyridine-3-carboxamide], the half-inhibitory concentration (IC50) on Human Met was > 300 nM; against Human KDR it was ≤ 100 nM; at Human Mer, ≤ 100 nM.
`COc1cnc2c(Oc3ccc(NC(=O)c4c(C)nc(C)c(OC)c4O)cc3)ccnc2c1` [Compound 59, 4-Hydroxy-5-methoxy-N-[4-[(7-methoxy-1,5-naphthyridin-4-yl)oxy]phenyl]-2,6-dimethylpyridine-3-carboxamide]: the figures for the half-inhibitory concentration (IC50) on Human Met, against Human KDR and against Human Mer were > 300 nM, 100 to 300 nM and ≤ 100 nM, respectively.
For `COc1cnc2c(Oc3ccc(NC(=O)c4c(C)nc(C)c(OC)c4O)cc3F)ccnc2c1` [Compound 60, N-[3-Fluoro-4-[(7-methoxy-1,5-naphthyridin-4-yl)oxy]phenyl]-4-hydroxy-5-methoxy-2,6-dimethylpyridine-3-carboxamide], in that order: > 300 nM, ≤ 100 nM and > 300 nM.
For the compound `COc1cc2nccc(Oc3ccc(NC(=O)c4c(C)nc(C)c(OC)c4O)cc3)c2nc1OC` [Compound 61, N-[4-[(6,7-Dimethoxy-1,5-naphthyridin-4-yl)oxy]phenyl]-4-hydroxy-5-methoxy-2,6-dimethylpyridine-3-carboxamide], the concentration for half-maximal inhibition (IC50) was > 300 nM on Human Met, ≤ 100 nM on Human KDR and > 300 nM against Human Mer.
With `COc1cc2nccc(Oc3ccc(NC(=O)c4c(C)nc(C)c(OC)c4O)cc3F)c2nc1OC` [Compound 62, N-[4-[(6,7-Dimethoxy-1,5-naphthyridin-4-yl)oxy]-3-fluorophenyl]-4-hydroxy-5-methoxy-2,6-dimethylpyridine-3-carboxamide], the half-maximal inhibitory concentration (IC50) at Human Met is > 300 nM; at Human KDR, ≤ 100 nM; against Human Mer, ≤ 100 nM.
